Laboratory results: PubChem BioAssay (NCI)
Where “and” joins values, the source holds several entries; their conditions need not be identical. Equal values may be shown once.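 1) Cells in 96-well plates. 2) Compound, 48 h, 5 concentrations. 3) Linear interpolation between surrounding doses. 4) Unreached endpoint = highest concentration. At the GI50, growth is halved. TGI: total growth inhibition.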

Assays:
Assay in all cases: NCI-60 cell line screen, 48 h
NCI-H460 lung = test system: NCI-H460 lung
HS 578T breast = test system: HS 578T breast
SF-539 CNS = test system: SF-539 CNS
HL-60(TB) leukemia = test system: HL-60(TB) leukemia
NCI/ADR-RES ovarian = test system: NCI/ADR-RES ovarian
MCF7 breast = test system: MCF7 breast
SR leukemia = test system: SR leukemia
CCRF-CEM leukemia = test system: CCRF-CEM leukemia
SK-MEL-28 melanoma = test system: SK-MEL-28 melanoma
MALME-3M melanoma = test system: MALME-3M melanoma

| Compound | GI50 (NCI-H460 lung) | TGI (NCI-H460 lung) [µM] | GI50 (HS 578T breast) [µM] | TGI (HS 578T breast) [µM] | GI50 (SF-539 CNS) [µM] | TGI (SF-539 CNS) [µM] | GI50 (HL-60(TB) leukemia) [µM] | TGI (HL-60(TB) leukemia) [µM] | GI50 (NCI/ADR-RES ovarian) | TGI (NCI/ADR-RES ovarian) [µM] | GI50 (MCF7 breast) [µM] | TGI (MCF7 breast) [µM] | GI50 (SR leukemia) [µM] | TGI (SR leukemia) [µM] | GI50 (CCRF-CEM leukemia) [µM] | TGI (CCRF-CEM leukemia) [µM] | GI50 (SK-MEL-28 melanoma) [µM] | TGI (SK-MEL-28 melanoma) [µM] | GI50 (MALME-3M melanoma) [µM] | TGI (MALME-3M melanoma) [µM] |
| --- | --- | --- | --- | --- | --- | --- | --- | --- | --- | --- | --- | --- | --- | --- | --- | --- | --- | --- | --- | --- |
| COc1cccc(C2=C(c3cn(C)c4cccc(OC)c34)C(=O)NC2=O)c1 | 8.75 µM | > 25 | 8.93 | > 25 | 6.58 | 18.6 | 9.75 | > 25 | 5.28 µM | > 25 | 6.99 | > 25 | 2.08 | > 25 | 10.4 | > 25 | > 19.1 | > 25 | > 16.6 | > 25 |
| O=C(Nc1ccc(I)cc1F)c1cc(I)ccc1O | 0.506 µM | 22.4 | 0.617 | 3.95 | 0.651 | 16.2 | 0.517 | 1.66 | 0.791 µM | 3.85 | 1.55 | 9.28 | 1.38 | > 100 | 0.943 | > 37.6 | 0.435 | 2.84 | 0.32 | 1.52 |
| C=CCCC(=O)N1C=CC(=O)[C@H](O)[C@@H]1/C=C/c1ccccc1 | 6.65 µM | > 32.5 | > 32.5 | > 32.5 | 7.87 | > 32.5 | 4.35 | 28 | 6.38 µM | > 32.5 | 6.55 | > 32.5 | 4.28 | > 32.5 | 5.61 | > 32.5 | 17.4 | > 32.5 | 9.61 | > 32.5 |
| Nc1c(C(=O)Nc2cccc(Br)c2)sc2nc3c(cc12)C(O)CCC3 (stereo unspecified) | 0.375 µM | 22 | 0.395 | 12.7 | 0.337 | 2.14 | 0.24 | 0.757 | 0.435 µM | > 48.8 | 0.289 | > 64.2 | 0.228 | > 46 | 0.357 | > 74.9 | 4.43 | > 100 | 0.522 | > 87.1 |
| O=C(Nc1cc(-c2cccnc2)nc(NCCCN2CCOCC2)n1)c1cc(Br)cc(C(F)(F)F)c1 | 2.97 µM | 8.94 | 2.71 | 8.51 | 1.67 | 3.47 | 2.15 | 5.86 | 2.6 µM | 9.11 | 2.17 | 9.22 | 2.6 | 41.7 | 3.54 | 12.9 | 1.73 | 3.48 | 1.76 | 3.58 |
| OC(COc1cccc2ccccc12)CN1CCN(c2ccccc2Cl)CC1 (stereo unspecified) | 12.8 µM | 29 | 15.8 | 58 | 16.5 | 32.8 | 12.7 | 44.2 | 13.2 µM | 28.6 | 14.7 | 28.3 | 13.5 | 40.4 | 11.4 | 69.1 | 14.5 | 27.9 | 10.3 | 25.9 |
| CCOC(=O)Cc1csc(NC(=O)COC(=O)c2ccc(OC)cc2)n1 | 33.8 µM | > 100 | > 100 | > 100 | 19.3 | 37.7 | 0.407 | 2.63 | > 100 µM | > 100 | 64.2 | > 100 | 6.04 | – | 11.1 | 31.5 | > 100 | > 100 | 64.9 | > 100 |
| CC1(C)[C@@H](OC(N)=O)C=C[C@]2(C=O)[C@H]3CC[C@]4(C)[C@@H](c5ccc(=O)oc5)[C@@H](Cl)C[C@]4(O)C3=CC[C@@H]12 | < 0.0025 µM | 0.0048 | < 0.0025 | 0.0146 | 0.00442 | 0.00848 | 0.00558 | 0.0121 | 0.00609 µM | 0.0167 | 0.00688 | 0.0287 | 0.00566 | 0.0154 | 0.00384 | 0.0117 | 0.00642 | 0.0156 | 0.00525 | 0.0109 |
| Cn1ncc(-c2ccc3c(=O)[nH]nc(CN)c3c2)c1-c1c(F)cc2ccccc2c1C#N | 3.67 µM | 14.6 | 8.18 | 28.7 | 7.6 | 20.8 | 3.42 | 18.2 | 12.7 µM | 50.5 | 1.52 | 12.6 | 1.1 | 13.1 | 10.7 | 57.3 | 10.6 | 23 | 4.57 | 17.6 |
| CC[C@H](NC(=O)[C@H](CS(=O)(=O)CC1CC1)N[C@@H](c1ccc(F)cc1)C(F)(F)F)C(=O)C(=O)NC1CC1 | > 100 µM | > 100 | > 100 | > 100 | > 100 | > 100 | > 100 | > 100 | > 100 µM | > 100 | 86.8 | > 100 | 98.4 | > 100 | > 100 | > 100 | > 100 | > 100 | > 100 | > 100 |
| Cc1c(C(=O)O[C@H]2[C@@H]3[C@H](C)CC[C@H]3[C@]3(C)O[C@@]2(C2CCCCC2)C[C@H]3OC(=O)CO)ccc2ccccc12 | 7.87 µM | 16.6 | 0.0165 | 0.142 | 7.65 | 14.9 | 9.3 | 20 | 5.65 µM | 12.8 | 7.38 | 15.9 | 7.36 | 18.3 | 9.13 | 20.9 | 8.44 | 15.8 | 7.24 | 14.5 |
| N#Cc1c2c(c(-c3cccs3)n(C3OC(CO)C(O)C(O)C3O)c1=S)CCc1ccccc1-2 (stereo unspecified) | 37.8 µM and > 100 µM | > 100 | – | > 100 | – | > 100 | – | > 84.7 | 13.4 µM and 39.5 µM | > 100 | – | > 100 | – | > 100 | – | > 100 | – | > 100 | – | > 100 |
| CN1CCN(CCOc2ccc(-c3cnc4c(-c5ccc(F)cc5)cnn4c3)cc2)CC1 | 1.54 µM | 3.06 | 1.49 | 4.53 | 1.27 | 2.57 | 2.09 | 4.47 | 2.2 µM | 4.88 | 1.48 | 3.05 | 2.07 | 10.9 | 1.55 | 3.82 | 1.87 | 3.62 | 1.62 | 3.13 |
| N=C(N)SCCc1ccccn1 | – | > 100 | – | > 100 | – | > 100 | – | > 100 | – | > 100 | – | > 100 | – | > 100 | – | > 100 | – | > 100 | – | > 100 |
| CCCn1c(N)c(C(=O)CNc2ccc(I)cc2)c(=O)[nH]c1=O | 0.393 µM | > 100 | 17.4 | > 100 | 0.84 | > 45.6 | 10.5 | > 100 | > 25.3 µM | > 100 | 0.806 | > 100 | 0.378 | 28.3 | 0.543 | > 100 | > 100 | > 100 | 45.6 | > 100 |
| COc1ccc(NC(=O)/C=C(C)/C=C/C=C(C)\C=C\C2=C(C)CCCC2(C)C)cc1 | 84 µM | > 100 | 9.02 | 96.7 | 48.8 | > 100 | 2.13 | 16.1 | 60.6 µM | > 100 | 40.3 | > 100 | 28.8 | 80.8 | 48 | > 100 | > 100 | > 100 | 41.2 | > 100 |
| O=C(c1ccccc1)C1C(C(=O)c2ccccc2)C(c2ccccc2)N(c2ccccc2)C1c1ccccc1 (stereo unspecified) | – | > 100 | – | > 100 | – | > 100 | – | > 100 | – | > 100 | – | > 100 | – | > 100 | – | > 100 | – | > 100 | – | > 100 |
| Oc1ccc(Cl)cc1-c1cc(-c2ccc(F)cc2)n[nH]1 | 1.2 µM | 4.1 | 1.71 | 6.65 | 2.1 | 4.51 | 3.6 | 21.5 | 2.19 µM | 6.98 | 0.395 | 14.1 | 1.24 | > 100 | 0.452 | 4.12 | 8.35 | > 100 | 3.26 | 9.66 |
